Measurements: ChEMBL document CHEMBL1136942, “Optimization of 5-phenyl-3-pyridinecarbonitriles as PKCtheta inhibitors” (Bioorg Med Chem Lett, 2009)
Converted amounts (≈) assume the structure as drawn.

Experiments:
[1] = molecular target: Protein kinase C theta type (Homo sapiens, UniProt Q04759); assay: Inhibition of human PKCtheta by IMAP assay
[2] = molecular target: Protein kinase C delta type (Homo sapiens, UniProt Q05655); assay: Inhibition of human PKCdelta by IMAP assay
[3] = Metabolic stability in human liver microsomes assessed as half life; type: ADME, Microsome
T-cell [4] = assay: Blockade of anti-CD3 and anti-CD28 antibody-induced IL2 expression in wild type C57BL/6 mouse T cells after 20 to 24 hrs by ELISA; type: functional, cell-based; settings: C57BL/6, T-cell
[5] = Solubility at pH 7.4; type: physicochemical; settings: buffer
[6] = molecular target: Tyrosine-protein kinase Lck (Homo sapiens, UniProt P06239); assay: Inhibition of Lck
Chain of Tyrosine-protein kinase Lck (P06239 whole entry): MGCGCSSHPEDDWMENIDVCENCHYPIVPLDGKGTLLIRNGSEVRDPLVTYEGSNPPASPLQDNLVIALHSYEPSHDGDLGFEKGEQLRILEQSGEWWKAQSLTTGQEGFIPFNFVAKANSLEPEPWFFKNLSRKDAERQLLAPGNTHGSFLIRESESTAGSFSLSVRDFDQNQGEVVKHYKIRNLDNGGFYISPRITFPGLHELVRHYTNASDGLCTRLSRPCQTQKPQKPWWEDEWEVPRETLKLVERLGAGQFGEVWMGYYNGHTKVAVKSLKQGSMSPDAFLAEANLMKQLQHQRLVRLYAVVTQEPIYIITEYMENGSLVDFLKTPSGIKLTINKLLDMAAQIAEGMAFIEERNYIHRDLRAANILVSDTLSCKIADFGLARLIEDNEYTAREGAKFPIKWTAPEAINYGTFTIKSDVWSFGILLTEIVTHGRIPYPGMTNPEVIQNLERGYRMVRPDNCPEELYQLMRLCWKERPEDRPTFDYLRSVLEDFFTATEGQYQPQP

[7] = Inhibition of p38
[8] = Metabolic stability in dog liver microsomes assessed as half life; type: ADME, Canis lupus familiaris, Microsome
[9] = Metabolic stability in mouse liver microsomes assessed as half life; type: ADME, Microsome
[10] = Metabolic stability in rat liver microsomes assessed as half life; type: ADME, Microsome
[11] = molecular target: Tyrosine-protein kinase Lyn (Homo sapiens, UniProt P07948); assay: Inhibition of Lyn
Chain of Tyrosine-protein kinase Lyn (P07948 whole entry): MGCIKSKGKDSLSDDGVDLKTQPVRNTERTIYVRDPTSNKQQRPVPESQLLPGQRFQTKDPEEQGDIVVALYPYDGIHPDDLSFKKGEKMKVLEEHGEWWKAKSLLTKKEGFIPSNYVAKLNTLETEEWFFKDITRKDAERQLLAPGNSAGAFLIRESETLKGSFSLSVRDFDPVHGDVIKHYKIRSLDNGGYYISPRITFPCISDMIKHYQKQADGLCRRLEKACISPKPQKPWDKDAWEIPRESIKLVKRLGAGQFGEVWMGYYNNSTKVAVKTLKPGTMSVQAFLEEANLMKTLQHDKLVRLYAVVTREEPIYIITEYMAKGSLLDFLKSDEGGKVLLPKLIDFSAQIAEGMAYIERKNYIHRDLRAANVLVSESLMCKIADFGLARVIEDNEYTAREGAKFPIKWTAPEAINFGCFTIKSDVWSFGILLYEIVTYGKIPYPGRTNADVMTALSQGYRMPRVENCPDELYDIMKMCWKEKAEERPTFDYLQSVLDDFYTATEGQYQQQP

[12] = Inhibition of IKK
[13] = Membrane permeability by PAMPA; type: ADME; settings: read-out: permeability
[14] = molecular target: Protein kinase C beta type (Homo sapiens, UniProt P05771); assay: Inhibition of human PKCbeta by IMAP assay
[15] = molecular target: T1, Protein kinase C zeta type (Homo sapiens, UniProt Q05513); assay: Inhibition of human PKCzeta by IMAP assay
T1 sequence (Q05513 whole entry): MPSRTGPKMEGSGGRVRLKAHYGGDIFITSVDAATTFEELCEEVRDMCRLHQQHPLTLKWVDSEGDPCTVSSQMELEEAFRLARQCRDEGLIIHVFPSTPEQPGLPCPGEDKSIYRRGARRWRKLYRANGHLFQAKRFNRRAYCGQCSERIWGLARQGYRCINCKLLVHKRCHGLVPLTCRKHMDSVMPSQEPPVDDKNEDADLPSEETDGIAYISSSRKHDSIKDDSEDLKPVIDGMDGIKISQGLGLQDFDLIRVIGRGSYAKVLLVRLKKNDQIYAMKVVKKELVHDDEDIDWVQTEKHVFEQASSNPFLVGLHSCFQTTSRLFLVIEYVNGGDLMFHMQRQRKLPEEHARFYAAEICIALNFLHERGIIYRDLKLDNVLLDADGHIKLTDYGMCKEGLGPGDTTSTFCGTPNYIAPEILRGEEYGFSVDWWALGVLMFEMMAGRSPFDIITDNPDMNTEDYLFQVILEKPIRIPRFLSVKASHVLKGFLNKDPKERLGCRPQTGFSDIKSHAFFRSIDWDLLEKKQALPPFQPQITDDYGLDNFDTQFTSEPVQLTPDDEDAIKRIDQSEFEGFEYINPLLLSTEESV

[16] = molecular target: MAP kinase-activated protein kinase 2 (Homo sapiens, UniProt P49137); assay: Inhibition of MK2
Chain of MAP kinase-activated protein kinase 2 (P49137 whole entry): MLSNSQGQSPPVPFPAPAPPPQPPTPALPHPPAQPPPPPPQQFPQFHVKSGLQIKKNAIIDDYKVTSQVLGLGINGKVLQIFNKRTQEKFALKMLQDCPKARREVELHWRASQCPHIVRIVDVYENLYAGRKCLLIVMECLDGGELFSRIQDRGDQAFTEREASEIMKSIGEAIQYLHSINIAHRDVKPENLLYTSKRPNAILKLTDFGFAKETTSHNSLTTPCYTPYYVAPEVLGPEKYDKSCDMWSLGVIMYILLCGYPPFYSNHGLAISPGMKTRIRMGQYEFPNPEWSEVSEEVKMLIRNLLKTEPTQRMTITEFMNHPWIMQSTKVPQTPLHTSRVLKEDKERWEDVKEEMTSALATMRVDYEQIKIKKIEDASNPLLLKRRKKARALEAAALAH

[17] = Metabolic stability in monkey liver microsomes assessed as half life; type: ADME, Macaca mulatta, Microsome; settings: rhesus monkey
T-cell [18] = assay: Blockade of anti-CD3 and anti-CD28 antibody-induced IL2 expression in PKC theta knockout mouse T cells after 20 to 24 hrs by ELISA; type: functional, cell-based
[19] = molecular target: Rho-associated protein kinase 1 (Homo sapiens, UniProt Q13464); assay: Inhibition of ROCK1
Chain of Rho-associated protein kinase 1 (Q13464 whole entry): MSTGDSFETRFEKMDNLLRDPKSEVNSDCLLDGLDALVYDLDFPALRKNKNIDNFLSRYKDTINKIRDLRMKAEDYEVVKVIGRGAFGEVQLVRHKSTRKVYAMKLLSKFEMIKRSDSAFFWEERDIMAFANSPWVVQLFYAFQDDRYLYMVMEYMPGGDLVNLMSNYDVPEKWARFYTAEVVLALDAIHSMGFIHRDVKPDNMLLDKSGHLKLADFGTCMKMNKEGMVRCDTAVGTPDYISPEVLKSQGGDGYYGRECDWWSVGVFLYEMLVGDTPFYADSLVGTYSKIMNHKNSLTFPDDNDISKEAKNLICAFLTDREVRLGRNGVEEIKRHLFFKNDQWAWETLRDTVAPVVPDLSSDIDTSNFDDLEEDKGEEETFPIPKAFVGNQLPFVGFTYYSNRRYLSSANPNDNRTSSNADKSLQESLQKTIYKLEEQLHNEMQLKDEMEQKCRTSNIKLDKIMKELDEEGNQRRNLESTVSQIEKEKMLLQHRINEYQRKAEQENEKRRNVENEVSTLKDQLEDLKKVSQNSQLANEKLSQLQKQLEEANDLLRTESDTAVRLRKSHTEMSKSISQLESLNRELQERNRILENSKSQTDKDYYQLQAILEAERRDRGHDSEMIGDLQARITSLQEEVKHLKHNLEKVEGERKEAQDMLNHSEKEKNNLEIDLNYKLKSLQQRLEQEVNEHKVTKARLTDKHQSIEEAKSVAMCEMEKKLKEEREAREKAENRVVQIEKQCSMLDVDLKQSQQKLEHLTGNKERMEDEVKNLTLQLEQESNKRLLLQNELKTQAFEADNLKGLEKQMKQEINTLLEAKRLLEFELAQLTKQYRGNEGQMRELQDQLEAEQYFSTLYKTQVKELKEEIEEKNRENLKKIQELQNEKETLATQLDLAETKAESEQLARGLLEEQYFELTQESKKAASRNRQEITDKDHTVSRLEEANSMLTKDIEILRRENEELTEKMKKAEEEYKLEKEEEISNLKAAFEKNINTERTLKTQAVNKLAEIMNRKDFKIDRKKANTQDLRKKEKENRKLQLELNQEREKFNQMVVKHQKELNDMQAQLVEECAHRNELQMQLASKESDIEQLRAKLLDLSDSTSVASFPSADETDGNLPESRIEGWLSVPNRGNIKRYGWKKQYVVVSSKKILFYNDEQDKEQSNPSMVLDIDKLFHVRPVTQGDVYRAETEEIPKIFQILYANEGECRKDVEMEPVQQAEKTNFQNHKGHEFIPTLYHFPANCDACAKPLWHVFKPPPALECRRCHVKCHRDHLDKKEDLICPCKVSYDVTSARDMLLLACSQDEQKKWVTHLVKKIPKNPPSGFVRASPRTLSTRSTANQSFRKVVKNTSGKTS

[20] = molecular target: T2, Protein kinase C epsilon type (Homo sapiens, UniProt Q02156); assay: Inhibition of human PKCepsilon by IMAP assay
T2 sequence (Q02156 whole entry): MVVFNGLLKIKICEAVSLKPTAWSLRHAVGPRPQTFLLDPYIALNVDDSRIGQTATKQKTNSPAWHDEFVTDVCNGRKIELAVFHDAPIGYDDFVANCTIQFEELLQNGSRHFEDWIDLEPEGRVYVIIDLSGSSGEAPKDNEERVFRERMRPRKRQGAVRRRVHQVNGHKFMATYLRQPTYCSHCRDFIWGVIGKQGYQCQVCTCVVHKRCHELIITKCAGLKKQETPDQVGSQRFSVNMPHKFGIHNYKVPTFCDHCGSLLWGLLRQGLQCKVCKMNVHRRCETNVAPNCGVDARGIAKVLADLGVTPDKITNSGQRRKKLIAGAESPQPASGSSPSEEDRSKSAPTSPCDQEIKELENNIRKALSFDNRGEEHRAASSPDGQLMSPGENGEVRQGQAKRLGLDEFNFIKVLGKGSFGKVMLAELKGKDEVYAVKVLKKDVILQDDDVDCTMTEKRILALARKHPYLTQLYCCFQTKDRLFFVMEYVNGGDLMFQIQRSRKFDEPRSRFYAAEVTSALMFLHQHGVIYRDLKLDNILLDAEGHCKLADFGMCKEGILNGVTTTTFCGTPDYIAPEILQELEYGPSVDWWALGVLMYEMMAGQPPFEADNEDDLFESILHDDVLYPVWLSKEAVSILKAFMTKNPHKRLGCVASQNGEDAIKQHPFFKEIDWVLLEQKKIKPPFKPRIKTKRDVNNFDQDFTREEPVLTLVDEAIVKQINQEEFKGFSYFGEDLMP

[21] = Inhibition of PDGFR
[22] = molecular target: Protein kinase C eta type (Homo sapiens, UniProt P24723); assay: Inhibition of human PKCeta by IMAP assay
Chain of Protein kinase C eta type (P24723 whole entry): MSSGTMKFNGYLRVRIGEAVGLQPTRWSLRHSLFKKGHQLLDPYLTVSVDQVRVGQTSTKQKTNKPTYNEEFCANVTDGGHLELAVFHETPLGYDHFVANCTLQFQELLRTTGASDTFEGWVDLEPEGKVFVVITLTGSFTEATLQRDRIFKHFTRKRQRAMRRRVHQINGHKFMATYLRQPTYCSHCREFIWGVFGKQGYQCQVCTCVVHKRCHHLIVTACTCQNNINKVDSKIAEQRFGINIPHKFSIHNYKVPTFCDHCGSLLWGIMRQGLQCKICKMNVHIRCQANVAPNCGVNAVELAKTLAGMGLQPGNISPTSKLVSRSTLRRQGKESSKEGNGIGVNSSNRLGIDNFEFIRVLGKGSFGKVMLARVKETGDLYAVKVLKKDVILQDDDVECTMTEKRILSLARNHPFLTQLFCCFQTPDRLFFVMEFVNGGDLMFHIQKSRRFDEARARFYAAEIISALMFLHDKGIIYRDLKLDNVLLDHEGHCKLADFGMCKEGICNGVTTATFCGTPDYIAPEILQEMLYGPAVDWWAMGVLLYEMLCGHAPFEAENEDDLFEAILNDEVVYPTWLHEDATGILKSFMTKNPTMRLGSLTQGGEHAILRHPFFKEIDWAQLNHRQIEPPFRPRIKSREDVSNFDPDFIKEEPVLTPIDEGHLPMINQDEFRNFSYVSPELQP

Chain of Protein kinase C theta type (Q04759 whole entry): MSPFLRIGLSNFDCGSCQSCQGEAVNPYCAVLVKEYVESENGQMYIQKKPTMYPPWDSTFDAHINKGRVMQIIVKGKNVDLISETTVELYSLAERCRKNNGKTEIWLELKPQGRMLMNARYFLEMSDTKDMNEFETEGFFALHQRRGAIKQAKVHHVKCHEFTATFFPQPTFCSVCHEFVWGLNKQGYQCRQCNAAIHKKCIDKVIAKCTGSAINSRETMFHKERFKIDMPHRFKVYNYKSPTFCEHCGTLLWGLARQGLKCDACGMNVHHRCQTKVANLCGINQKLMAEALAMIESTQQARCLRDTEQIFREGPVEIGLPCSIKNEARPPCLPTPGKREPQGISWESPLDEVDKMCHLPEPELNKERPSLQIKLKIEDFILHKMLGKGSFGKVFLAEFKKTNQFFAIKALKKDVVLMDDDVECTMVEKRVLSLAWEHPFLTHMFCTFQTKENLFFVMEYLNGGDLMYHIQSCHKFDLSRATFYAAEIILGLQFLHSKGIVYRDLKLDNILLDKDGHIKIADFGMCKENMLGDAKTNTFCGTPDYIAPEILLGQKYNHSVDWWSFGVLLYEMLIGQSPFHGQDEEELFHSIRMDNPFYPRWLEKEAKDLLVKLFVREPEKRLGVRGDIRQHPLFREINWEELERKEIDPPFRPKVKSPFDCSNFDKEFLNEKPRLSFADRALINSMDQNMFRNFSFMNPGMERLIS
Chain of Protein kinase C delta type (Q05655 whole entry): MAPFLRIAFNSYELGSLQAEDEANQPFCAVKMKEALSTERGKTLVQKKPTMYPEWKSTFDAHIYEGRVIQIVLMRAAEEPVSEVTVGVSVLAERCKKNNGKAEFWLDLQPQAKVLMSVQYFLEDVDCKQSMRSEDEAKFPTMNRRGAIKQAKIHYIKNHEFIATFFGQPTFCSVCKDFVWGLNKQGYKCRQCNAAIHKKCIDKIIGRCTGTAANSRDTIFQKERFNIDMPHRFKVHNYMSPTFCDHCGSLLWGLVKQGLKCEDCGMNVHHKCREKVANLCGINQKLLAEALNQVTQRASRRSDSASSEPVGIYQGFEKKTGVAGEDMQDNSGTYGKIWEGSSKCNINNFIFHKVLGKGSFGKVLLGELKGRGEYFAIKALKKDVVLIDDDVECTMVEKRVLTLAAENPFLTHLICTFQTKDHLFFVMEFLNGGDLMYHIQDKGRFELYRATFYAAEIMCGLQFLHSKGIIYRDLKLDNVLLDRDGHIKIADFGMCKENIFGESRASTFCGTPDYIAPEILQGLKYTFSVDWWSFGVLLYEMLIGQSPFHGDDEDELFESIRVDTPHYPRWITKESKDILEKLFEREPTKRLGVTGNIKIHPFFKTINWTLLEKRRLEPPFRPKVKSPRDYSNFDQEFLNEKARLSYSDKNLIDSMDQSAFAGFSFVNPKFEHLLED

Compound	IC50 [1]	IC50 [2]	further results
COc1ccc(-c2cncc(C#N)c2Nc2ccc3[nH]ccc3c2F)cc1OC	5.3 nM	69 nM	–
Cc1c(Nc2c(C#N)cncc2-c2ccccc2)ccc2[nH]ccc12	–	63 nM	–
COc1ccc(-c2cncc(C#N)c2Nc2ccc3[nH]ccc3c2C)cc1	5.6 nM	85 nM	–
Cc1c(Nc2c(C#N)cncc2-c2ccc(OCCN3CCN(C)CC3)cc2)ccc2[nH]ccc12	7.4 nM	51 nM	half-life [3]: < 15 min; IC50 (T-cell [4]): 160 nM; solubility [5]: 67 µg/mL (≈ 144 µM); IC50 [6]: > 10000 nM; IC50 [7]: > 10000 nM; half-life [8]: < 15 min; half-life [9]: < 15 min; half-life [10]: < 15 min; IC50 [11]: > 10000 nM; IC50 [12]: > 10000 nM; Papp [13]: 0.28 ×10⁻⁶ cm/s; IC50 [14]: 22000 nM; IC50 [15]: > 100000 nM; IC50 [16]: > 10000 nM; half-life [17]: < 15 min; IC50 (T-cell [18]): > 15000 nM; IC50 [19]: > 10000 nM; IC50 [20]: 54 nM; IC50 [21]: > 10000 nM; IC50 [22]: 450 nM
Cc1cc2[nH]ccc2cc1Nc1c(C#N)cncc1-c1ccc(OCCN2CCN(C)CC2)cc1	–	130 nM	–
Cc1c(Nc2c(C#N)cncc2-c2ccc(OCCCN3CCN(C)CC3)cc2)ccc2[nH]ccc12	–	110 nM	–
CCc1c(Nc2c(C#N)cncc2-c2ccc(OC)c(OC)c2)ccc2[nH]ccc12	55 nM	980 nM	–
COc1ccc(-c2cncc(C#N)c2Nc2cc(C)c3[nH]ccc3c2)cc1OC	120 nM	–	–
COc1ccc(-c2cncc(C#N)c2Nc2cc3cc[nH]c3cc2C)cc1OC	10.5 nM	280 nM	–
Cc1c(Nc2c(C#N)cncc2-c2ccc(OCCNCCN(C)C)cc2)ccc2[nH]ccc12	5.9 nM	18 nM	–
COc1ccc(-c2cncc(C#N)c2N(C)c2ccc3[nH]ccc3c2)cc1OC	–	2100 nM	–
COc1ccc(-c2cncc(C#N)c2Oc2ccc3[nH]ccc3c2)cc1OC	1700 nM	–	–
Cc1c(Nc2c(C#N)cncc2-c2ccc(OCCN3CCCC3)cc2)ccc2[nH]ccc12	4.5 nM	28 nM	–
COc1ccc(-c2cncc(C#N)c2Nc2ccc3[nH]ccc3c2C)cc1OC	6.3 nM	81 nM	–
COc1ccc(-c2cncc(C#N)c2Nc2ccc3[nH]ccc3c2OC)cc1OC	–	350 nM	–
COc1ccccc1-c1cncc(C#N)c1Nc1ccc2[nH]ccc2c1C	–	340 nM	–
CN1CCN(CCOc2ccc(-c3cncc(C#N)c3Nc3ccc4[nH]ccc4c3)cc2)CC1	–	160 nM	–

Now from value to compound, other results behind:

IC50 [1]	IC50 [2]	Compound	further results
260 nM	1400 nM	COc1ccc(-c2cncc(C#N)c2Nc2ccc3c(ccn3C)c2C)cc1OC	–
–	150 nM	Cc1c(Nc2c(C#N)cncc2-c2ccc(OCCN3CCOCC3)cc2)ccc2[nH]ccc12	–
2300 nM	–	COc1ccc(-c2cncc(C#N)c2Nc2ccc3cc[nH]c3c2)cc1OC	–
14 nM	41 nM	CN1CCN(CCOc2ccc(-c3cncc(C#N)c3Nc3cccc4[nH]ccc34)cc2)CC1	–
–	30 nM	Cc1c(Nc2c(C#N)cncc2-c2ccc(OCCN3CCC(N4CCCC4)CC3)cc2)ccc2[nH]ccc12	–
1700 nM	–	COc1ccc(-c2cncc(C#N)c2-c2ccc3[nH]ccc3c2)cc1OC	–
–	62 nM	COc1ccc(-c2cncc(C#N)c2Nc2cccc3[nH]ccc23)cc1OC	–
–	210 nM	COc1cccc(-c2cncc(C#N)c2Nc2ccc3[nH]ccc3c2C)c1	–
–	29 nM	Cc1c(Nc2c(C#N)cncc2-c2ccc(OCCN3CCN(CCO)CC3)cc2)ccc2[nH]ccc12	–
